Data: PubChem BioAssay AID248 (DTP/NCI, 2004)
“And” between values parts separate entries of the source, which are not always exact repeats. Identical values can stand only once. Toxic doses and inconclusive results are not listed. No stated cut-off is given here; in the data, active means T/C of 150% or more; inactive means T/C below 125%.

Test system: L1210 leukemia ip in BDF1 mice, survival T/C
Test: NCI In Vivo Anticancer Drug Screen. Data for tumor model L1210 Leukemia (intraperitoneal) in B6D2F1 (BDF1) mice
Settings: endpoint: mean survival time, higher = longer survival
Summary of the method: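 Transplanted-tumor mice were given test agent; controls received vehicle only. Survival readings from the two groups were divided (treated over control).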

[1] = dose: 100.0 mg/kg/injection, schedule: Q01DX009 (ip), vehicle: Klucel (hydroxypropylcellulose) (HPC)
[2] = dose: 200.0 mg/kg/injection, schedule: Q01DX009 (ip), vehicle: Klucel (hydroxypropylcellulose) (HPC)
[3] = dose: 100.0 mg/kg/injection, schedule: Q01DX001 (ip), vehicle: Klucel (hydroxypropylcellulose) (HPC)
[4] = dose: 100.0 mg/kg/injection, schedule: Q04DX002 (ip), vehicle: Klucel (hydroxypropylcellulose) (HPC)
[5] = dose: 200.0 mg/kg/injection, schedule: Q04DX002 (ip), vehicle: Klucel (hydroxypropylcellulose) (HPC)
[6] = dose: 100.0 mg/kg/injection, schedule: Q04DX002 (ip), vehicle: saline with Tween-80
[7] = dose: 200.0 mg/kg/injection, schedule: Q04DX002 (ip), vehicle: saline with Tween-80
[8] = dose: 400.0 mg/kg/injection, schedule: Q04DX002 (ip), vehicle: saline with Tween-80
[9] = dose: 100.0 mg/kg/injection, schedule: Q01DX001 (ip), vehicle: saline
[10] = dose: 200.0 mg/kg/injection, schedule: Q01DX001 (ip), vehicle: saline
[11] = dose: 1.56 mg/kg/injection, schedule: Q01DX009 (ip), vehicle: saline
[12] = dose: 400.0 mg/kg/injection, schedule: Q04DX002 (ip), vehicle: Klucel (hydroxypropylcellulose) (HPC)
[13] = dose: 100.0 mg/kg/injection, schedule: Q01DX009 (ip), vehicle: water
[14] = dose: 200.0 mg/kg/injection, schedule: Q01DX009 (ip), vehicle: water

Measured: T/C

C[NH-].C[NH-].[I][Pt+2][I]
inactive: dose: 12.0 mg/kg/injection, schedule: Q04DX003 (ip), vehicle: other 118 % of control | dose: 17.0 mg/kg/injection, schedule: Q04DX003 (ip), vehicle: other 113 % of control | dose: 18.0 mg/kg/injection, schedule: Q04DX003 (ip), vehicle: water 102 % of control | dose: 25.0 mg/kg/injection, schedule: Q04DX003 (ip), vehicle: other 108 % of control | dose: 25.0 mg/kg/injection, schedule: Q04DX003 (ip), vehicle: water 102 % of control | dose: 37.0 mg/kg/injection, schedule: Q04DX003 (ip), vehicle: other 111 % of control | dose: 37.0 mg/kg/injection, schedule: Q04DX003 (ip), vehicle: water 115 % of control | dose: 44.0 mg/kg/injection, schedule: Q01DX001 (ip), vehicle: other 113 % of control | dose: 50.0 mg/kg/injection, schedule: Q04DX003 (ip), vehicle: other 110 % of control | dose: 67.0 mg/kg/injection, schedule: Q01DX001 (ip), vehicle: other 114 % of control | dose: 100.0 mg/kg/injection, schedule: Q01DX001 (ip), vehicle: other 120 % of control

COc1ccc(C=O)cc1OCCCCCOc1cc(C=O)ccc1OC
inactive: dose: 50.0 mg/kg/injection, schedule: Q01DX009 (ip), vehicle: Klucel (hydroxypropylcellulose) (HPC) 86 % of control | [1] 101 % of control | [2] 90 % of control

O=C(c1cccc([N+](=O)[O-])c1)C1CC1
inactive: dose: 25.0 mg/kg/injection, schedule: Q01DX001 (ip), vehicle: Klucel (hydroxypropylcellulose) (HPC) 97 % of control | dose: 50.0 mg/kg/injection, schedule: Q01DX001 (ip), vehicle: Klucel (hydroxypropylcellulose) (HPC) 101 % of control | [3] 95 % of control

Cn1c(Cl)c(C(=O)O)c2ccccc21
inactive: dose: 50.0 mg/kg/injection, schedule: Q04DX002 (ip), vehicle: Klucel (hydroxypropylcellulose) (HPC) 97 % of control | [4] 97 % of control | [5] 101 % of control

CC1CC=CCC1/C=N/NC(N)=O (stereo unspecified)
inactive: [3] 107 % of control | dose: 200.0 mg/kg/injection, schedule: Q01DX001 (ip), vehicle: Klucel (hydroxypropylcellulose) (HPC) 104 % of control | dose: 400.0 mg/kg/injection, schedule: Q01DX001 (ip), vehicle: Klucel (hydroxypropylcellulose) (HPC) 98 % of control

CCCCCCCCOC(=O)CCCCl
inactive: [6] 107 % of control | [7] 100 % of control | [8] 102 % of control

Oc1ccc2ccc(O)c(C(NC(O)c3ccccc3)c3ccccc3)c2c1C(NC(O)c1ccccc1)c1ccccc1 (stereo unspecified)
inactive: dose: 10.0 mg/kg/injection, schedule: Q01DX001 (ip), vehicle: saline 96 % of control | dose: 20.0 mg/kg/injection, schedule: Q01DX001 (ip), vehicle: saline 96 % of control | dose: 40.0 mg/kg/injection, schedule: Q01DX001 (ip), vehicle: saline 93 % of control

CNNC(=O)Cc1ccc(OC)cc1
inactive: dose: 50.0 mg/kg/injection, schedule: Q01DX009 (ip), vehicle: saline 100 % of control | [9] 100 % of control | [10] 113 % of control

CCCCCCCCC1CCCCC1
inactive: dose: 50.0 mg/kg/injection, schedule: Q04DX002 (sc), vehicle: olive oil, sesame oil, peanut oil 105 % of control | dose: 100.0 mg/kg/injection, schedule: Q04DX002 (sc), vehicle: olive oil, sesame oil, peanut oil 109 % of control | dose: 200.0 mg/kg/injection, schedule: Q04DX002 (sc), vehicle: olive oil, sesame oil, peanut oil 109 % of control

CC(=O)Nc1ccc(S(=O)(=O)N(C)Cc2ccccc2)cc1
inactive: [1] 94 % of control | [2] 102 % of control | dose: 400.0 mg/kg/injection, schedule: Q01DX009 (ip), vehicle: Klucel (hydroxypropylcellulose) (HPC) 107 % of control

CCCCSc1ncc(C)c(NC)n1
inactive: dose: 25.0 mg/kg/injection, schedule: Q01DX Z (ip), vehicle: methylcellulose (MC) 92 % of control | dose: 50.0 mg/kg/injection, schedule: Q01DX Z (ip), vehicle: methylcellulose (MC) 95 % of control

N#CC(CC(=O)c1ccccc1)c1ccccc1 (stereo unspecified)
inactive: dose: 100.0 mg/kg/injection, schedule: Q01DX009 (ip), vehicle: saline with Tween-80 97 % of control | dose: 200.0 mg/kg/injection, schedule: Q01DX009 (ip), vehicle: saline with Tween-80 100 % of control | dose: 400.0 mg/kg/injection, schedule: Q01DX009 (ip), vehicle: saline with Tween-80 107 % of control

c1ccc(CCN2CCCCC2)nc1
inactive: [11] 94 % of control | dose: 3.13 mg/kg/injection, schedule: Q01DX009 (ip), vehicle: saline 93 % of control | dose: 6.25 mg/kg/injection, schedule: Q01DX009 (ip), vehicle: saline 89 % of control

NC(=O)NC(=O)c1nc2ccccc2[nH]c1=O
inactive: [4] 95 % of control | [5] 95 % of control | [12] 100 % of control

O=C1NC2(C=CC(Br)CC2)C(=O)C12CCCCC2 (stereo unspecified)
inactive: dose: 75.0 mg/kg/injection, schedule: Q01DX001 (ip), vehicle: saline 104 % of control | dose: 150.0 mg/kg/injection, schedule: Q01DX001 (ip), vehicle: saline 100 % of control | dose: 300.0 mg/kg/injection, schedule: Q01DX001 (ip), vehicle: saline 102 % of control

c1ccc([Se+](c2ccccc2)c2ccccc2)cc1
inactive: dose: 0.22 mg/kg/injection, schedule: Q01DX009 (ip), vehicle: Klucel (hydroxypropylcellulose) (HPC) 98 % of control | dose: 0.39 mg/kg/injection, schedule: Q01DX009 (ip), vehicle: saline 94 % of control | dose: 0.45 mg/kg/injection, schedule: Q01DX009 (ip), vehicle: Klucel (hydroxypropylcellulose) (HPC) 110 % of control | dose: 0.78 mg/kg/injection, schedule: Q01DX009 (ip), vehicle: saline 97 % of control | [11] 87 % of control

COC(=O)CNCc1ccccc1
inactive: [13] 98 % of control | [14] 115 % of control | dose: 400.0 mg/kg/injection, schedule: Q01DX009 (ip), vehicle: water 100 % of control

COC(=O)c1cccc2ccc3ccccc3c12
inactive: dose: 75.0 mg/kg/injection, schedule: Q04DX003 (ip), vehicle: saline 97 % of control | dose: 150.0 mg/kg/injection, schedule: Q04DX003 (ip), vehicle: saline 103 % of control | dose: 300.0 mg/kg/injection, schedule: Q04DX003 (ip), vehicle: saline 94 % of control

O=C(O)CC12CCCCC1CCCC2 (stereo unspecified)
inactive: dose: 100.0 mg/kg/injection, schedule: Q01DX009 (ip), vehicle: acetone 94 % of control | dose: 200.0 mg/kg/injection, schedule: Q01DX009 (ip), vehicle: acetone 100 % of control | dose: 400.0 mg/kg/injection, schedule: Q01DX009 (ip), vehicle: acetone 94 % of control

C1CCN(CCC2CCCCN2)CC1 (stereo unspecified)
inactive: dose: 25.0 mg/kg/injection, schedule: Q04DX003 (ip), vehicle: saline 105 % of control | dose: 50.0 mg/kg/injection, schedule: Q04DX003 (ip), vehicle: saline 94 % of control | dose: 100.0 mg/kg/injection, schedule: Q04DX003 (ip), vehicle: saline 101 % of control and 92 % of control

CNS(=O)(=O)CCC1NC(=O)NC1=O (stereo unspecified)
inactive: dose: 100.0 mg/kg/injection, schedule: Q04DX003 (ip), vehicle: saline with Tween-80 100 % of control | dose: 200.0 mg/kg/injection, schedule: Q04DX003 (ip), vehicle: saline with Tween-80 105 % of control | dose: 400.0 mg/kg/injection, schedule: Q04DX003 (ip), vehicle: saline with Tween-80 101 % of control

CCOC(=O)N(CCN1C(=O)c2ccccc2C1=O)c1cc(OC)ccc1OC
inactive: [4] 100 % of control | [5] 93 % of control | [12] 89 % of control

CCCC(CCC)(C(=O)OCCOCCCl)c1cccc2ccccc12
inactive: [6] 89 % of control | [7] 99 % of control | [8] 95 % of control

Brc1ccc2[nH]c3c(c2c1)CCCC3
inactive: [9] 87 % of control | [10] 89 % of control | dose: 400.0 mg/kg/injection, schedule: Q01DX001 (ip), vehicle: saline 98 % of control

CC1=C(C)CC2C(=O)C=CC(=O)C2C1 (stereo unspecified)
inactive: dose: 50.0 mg/kg/injection, schedule: Q01DX009 (ip), vehicle: water 97 % of control | [13] 97 % of control and 101 % of control | dose: 100.0 mg/kg/injection, schedule: Q04DX003 (ip), vehicle: water 89 % of control | [14] 95 % of control | dose: 200.0 mg/kg/injection, schedule: Q04DX003 (ip), vehicle: water 101 % of control
